Source: BindingDB's records for doi:10.1021/jm00072a019 (J. Uriach & Cía., 1993)

Assay: Inhibition of PAF-induced platelet aggregation

For Cc1ncccc1C(C#N)N1CCN(C(=O)CC(NC(=O)OC(C)(C)C)c2ccccc2)CC1 (stereo not given) [(3-{4-[Cyano-(2-methyl-pyridin-3-yl)-methyl]-piperazin-1-yl}-3-oxo-1-phenyl-propyl)-carbamic acid tert-butyl ester], which IC50 is on record?
Its IC50 is 56 nM.

For CC(=O)N(CC(=O)N1CCN(C(C#N)c2cccnc2C)CC1)C(c1ccccc1)c1ccccc1 (stereo not given) [N-Benzhydryl-N-(2-{4-[cyano-(2-methyl-pyridin-3-yl)-methyl]-piperazin-1-yl}-2-oxo-ethyl)-acetamide], which IC50 is on record?
The IC50 was 20 nM.

With Cc1ncccc1C(C#N)N1CCN(C(=O)C=C(c2ccccc2)c2ccccc2)CC1 (stereo not given) [[4-(3,3-Diphenyl-acryloyl)-piperazin-1-yl]-(2-methyl-pyridin-3-yl)-acetonitrile] as the compound, how does the IC50 read?
Its IC50 is 26 nM.

Which IC50 does the source give for Cc1ncccc1C(C#N)N1CCN(C(=O)CC(NCc2cccnc2)c2ccccc2)CC1 (stereo not given) [(2-Methyl-pyridin-3-yl)-(4-{3-phenyl-3-[(pyridin-3-ylmethyl)-amino]-propionyl}-piperazin-1-yl)-acetonitrile] here?
Its IC50 is 75 nM.

With COC(=O)N(Cc1ccccc1)C(CC(=O)N1CCN(C(C#N)c2cccnc2C)CC1)c1ccccc1 (stereo not given) [Benzyl-(3-{4-[cyano-(2-methyl-pyridin-3-yl)-methyl]-piperazin-1-yl}-3-oxo-1-phenyl-propyl)-carbamic acid methyl ester] as the compound, how does the IC50 read?
The IC50 was 68 nM.

With Cc1ncccc1C(C#N)N1CCN(C(=O)CC(c2ccccc2)N2CCOC2=O)CC1 (stereo not given) [(2-Methyl-pyridin-3-yl)-{4-[3-(2-oxo-oxazolidin-3-yl)-3-phenyl-propionyl]-piperazin-1-yl}-acetonitrile] as the compound, how does the IC50 read?
The IC50 was 63 nM.

With Cc1ncccc1C(C#N)N1CCN(C(=O)CC(NC(=O)N2CCCC2)c2ccccc2)CC1 (stereo not given) [Pyrrolidine-1-carboxylic acid (3-{4-[cyano-(2-methyl-pyridin-3-yl)-methyl]-piperazin-1-yl}-3-oxo-1-phenyl-propyl)-amide] as the compound, how does the IC50 read?
The IC50 was 64 nM.

Which IC50 does the source give for Cc1ncccc1C(C#N)N1CCN(C(=O)CN(C=O)C(c2ccccc2)c2ccccc2)CC1 (stereo not given) [N-Benzhydryl-N-(2-{4-[cyano-(2-methyl-pyridin-3-yl)-methyl]-piperazin-1-yl}-2-oxo-ethyl)-formamide] here?
The IC50 was 30 nM.

Which IC50 does the source give for Cc1ncccc1C(C#N)N1CCN(C(=O)CNC(C)(c2ccccc2)c2ccccc2)CC1 (stereo not given) [{4-[2-(1,1-Diphenyl-ethylamino)-acetyl]-piperazin-1-yl}-(2-methyl-pyridin-3-yl)-acetonitrile] here?
Its IC50 is 86 nM.

With CCOC(=O)NC(CC(=O)N1CCN(C(C#N)c2cccnc2C)CC1)c1ccccc1 (stereo not given) [(3-{4-[Cyano-(2-methyl-pyridin-3-yl)-methyl]-piperazin-1-yl}-3-oxo-1-phenyl-propyl)-carbamic acid ethyl ester] as the compound, how does the IC50 read?
The IC50 was 14 nM.

For COC(=O)NC(CC(=O)N1CCN(C(C#N)c2cccnc2C)CC1)c1ccccc1 (stereo not given) [(3-{4-[Cyano-(2-methyl-pyridin-3-yl)-methyl]-piperazin-1-yl}-3-oxo-1-phenyl-propyl)-carbamic acid methyl ester], which IC50 is on record?
The IC50 was 41 nM.

For Cc1ncccc1C(C#N)N1CCN(C(=O)COC(c2ccccc2)c2ccccc2)CC1 (stereo not given) [[4-(2-Benzhydryloxy-acetyl)-piperazin-1-yl]-(2-methyl-pyridin-3-yl)-acetonitrile], which IC50 is on record?
Its IC50 is 42 nM.

With Cc1ncccc1C(C#N)N1CCN(C(=O)CNC(c2ccc(F)cc2)c2ccc(F)cc2)CC1 (stereo not given) [[4-(2-{[Bis-(4-fluoro-phenyl)-methyl]-amino}-acetyl)-piperazin-1-yl]-(2-methyl-pyridin-3-yl)-acetonitrile] as the compound, how does the IC50 read?
Its IC50 is 150 nM.

With CC(=O)NC(CC(=O)N1CCN(C(C#N)c2cccnc2C)CC1)c1ccccc1 (stereo not given) [N-(3-{4-[Cyano-(2-methyl-pyridin-3-yl)-methyl]-piperazin-1-yl}-3-oxo-1-phenyl-propyl)-acetamide] as the compound, how does the IC50 read?
The IC50 was 31 nM.

For CCc1ncccc1C(C#N)N1CCN(C(=O)CNC(c2ccccc2)c2ccccc2)CC1 (stereo not given) [{4-[2-(Benzhydryl-amino)-acetyl]-piperazin-1-yl}-(2-ethyl-pyridin-3-yl)-acetonitrile], which IC50 is on record?
The IC50 was 38 nM.

Which IC50 does the source give for Cc1ncccc1C(C#N)N1CCN(C(=O)CC(N)c2ccccc2)CC1 (stereo not given) [[4-(3-Amino-3-phenyl-propionyl)-piperazin-1-yl]-(2-methyl-pyridin-3-yl)-acetonitrile] here?
Its IC50 is 740 nM.

With Cc1ncccc1C(C#N)N1CCN(C(=O)CC(c2ccccc2)N2CCCC2=O)CC1 (stereo not given) [(2-Methyl-pyridin-3-yl)-{4-[3-(2-oxo-pyrrolidin-1-yl)-3-phenyl-propionyl]-piperazin-1-yl}-acetonitrile] as the compound, how does the IC50 read?
Its IC50 is 30 nM.

Which IC50 does the source give for Cc1ncccc1C(C#N)N1CCN(C(=O)CC(NC(=O)OCC(C)C)c2ccccc2)CC1 (stereo not given) [(3-{4-[Cyano-(2-methyl-pyridin-3-yl)-methyl]-piperazin-1-yl}-3-oxo-1-phenyl-propyl)-carbamic acid isobutyl ester] here?
The IC50 was 36 nM.

Which IC50 does the source give for Cc1ncccc1C(C#N)N1CCN(C(=O)CC(c2ccccc2)c2ccccc2)CC1 (stereo not given) [[4-(3,3-Diphenyl-propionyl)-piperazin-1-yl]-(2-methyl-pyridin-3-yl)-acetonitrile] here?
Its IC50 is 18 nM.

For Cc1ncccc1C(C#N)N1CCN(C(=O)CNC(c2ccccc2)c2ccccc2)CC1 (stereo not given) [{4-[2-(Benzhydryl-amino)-acetyl]-piperazin-1-yl}-(2-methyl-pyridin-3-yl)-acetonitrile], which IC50 is on record?
Its IC50 is 40 nM.

Which IC50 does the source give for Cc1ncccc1C(C#N)N1CCN(C(=O)CCC(c2ccccc2)c2ccccc2)CC1 (stereo not given) [[4-(4,4-Diphenyl-butyryl)-piperazin-1-yl]-(2-methyl-pyridin-3-yl)-acetonitrile] here?
The IC50 was 80 nM.

For C#CCNC(CC(=O)N1CCN(C(C#N)c2cccnc2C)CC1)c1ccccc1 (stereo not given) [(2-Methyl-pyridin-3-yl)-[4-(3-phenyl-3-prop-2-ynylamino-propionyl)-piperazin-1-yl]-acetonitrile], which IC50 is on record?
The IC50 was 270 nM.

With Cc1ncccc1C(C#N)N1CCN(C(=O)CC(NC(=O)OCc2ccccc2)c2ccccc2)CC1 (stereo not given) [(3-{4-[Cyano-(2-methyl-pyridin-3-yl)-methyl]-piperazin-1-yl}-3-oxo-1-phenyl-propyl)-carbamic acid benzyl ester] as the compound, how does the IC50 read?
Its IC50 is 22 nM.

For Cc1ncccc1C(C#N)N1CCN(C(=O)CC(NC(=O)c2ccccc2)c2ccccc2)CC1 (stereo not given) [N-(3-{4-[Cyano-(2-methyl-pyridin-3-yl)-methyl]-piperazin-1-yl}-3-oxo-1-phenyl-propyl)-benzamide], which IC50 is on record?
The IC50 was 9.1 nM.

For Cc1ncccc1C(C#N)N1CCN(C(=O)CC(NCc2ccccc2)c2ccccc2)CC1 (stereo not given) [[4-(3-Benzylamino-3-phenyl-propionyl)-piperazin-1-yl]-(2-methyl-pyridin-3-yl)-acetonitrile], which IC50 is on record?
Its IC50 is 9.1 nM.

For COC(=O)N(C)C(CC(=O)N1CCN(C(C#N)c2cccnc2C)CC1)c1ccccc1 (stereo not given) [(3-{4-[Cyano-(2-methyl-pyridin-3-yl)-methyl]-piperazin-1-yl}-3-oxo-1-phenyl-propyl)-methyl-carbamic acid methyl ester], which IC50 is on record?
The IC50 was 20 nM.

Which IC50 does the source give for C#CC(c1cccnc1C)N1CCN(C(=O)CNC(c2ccccc2)c2ccccc2)CC1 (stereo not given) [2-(Benzhydryl-amino)-1-{4-[1-(2-methyl-pyridin-3-yl)-prop-2-ynyl]-piperazin-1-yl}-ethanone] here?
The IC50 was 860 nM.

For Cc1ncccc1C(C#N)N1CCN(C(=O)C(C)(C)C(F)(c2ccccc2)c2ccccc2)CC1 (stereo not given) [[4-(3-Fluoro-2,2-dimethyl-3,3-diphenyl-propionyl)-piperazin-1-yl]-(2-methyl-pyridin-3-yl)-acetonitrile], which IC50 is on record?
Its IC50 is 26 nM.

With Cc1ncccc1C(C#N)N1CCN(C(=O)CC(NC(N)=O)c2ccccc2)CC1 (stereo not given) [(3-{4-[Cyano-(2-methyl-pyridin-3-yl)-methyl]-piperazin-1-yl}-3-oxo-1-phenyl-propyl)-urea] as the compound, how does the IC50 read?
Its IC50 is 470 nM.

For Cc1ncccc1C(C#N)N1CCN(C(=O)CC(c2ccccc2)N(Cc2ccccc2)Cc2ccccc2)CC1 (stereo not given) [[4-(3-Dibenzylamino-3-phenyl-propionyl)-piperazin-1-yl]-(2-methyl-pyridin-3-yl)-acetonitrile], which IC50 is on record?
Its IC50 is 41 nM.

With Cc1ncccc1C(C#N)N1CCN(C(=O)CC(Nc2ccccc2)c2ccccc2)CC1 (stereo not given) [(2-Methyl-pyridin-3-yl)-[4-(3-phenyl-3-phenylamino-propionyl)-piperazin-1-yl]-acetonitrile] as the compound, how does the IC50 read?
The IC50 was 28 nM.

With Cc1ncccc1C(C#N)N1CCN(C(=O)CC(NC(=O)Oc2ccccc2)c2ccccc2)CC1 (stereo not given) [(3-{4-[Cyano-(2-methyl-pyridin-3-yl)-methyl]-piperazin-1-yl}-3-oxo-1-phenyl-propyl)-carbamic acid phenyl ester] as the compound, how does the IC50 read?
Its IC50 is 16 nM.

Which IC50 does the source give for Cc1ncccc1C(C#N)N1CCN(C(=O)CSC(c2ccccc2)c2ccccc2)CC1 (stereo not given) [[4-(2-Benzhydrylsulfanyl-acetyl)-piperazin-1-yl]-(2-methyl-pyridin-3-yl)-acetonitrile] here?
Its IC50 is 79 nM.

With Cc1ncccc1C(C#N)N1CCN(C(=O)[C@H](CO)NC(c2ccccc2)c2ccccc2)CC1 (stereo not given in full) [{4-[2-(Benzhydryl-amino)-3-hydroxy-propionyl]-piperazin-1-yl}-(2-methyl-pyridin-3-yl)-acetonitrile] as the compound, how does the IC50 read?
Its IC50 is 34 nM.

Which IC50 does the source give for Cc1ncccc1C(C#N)N1CCN(C(=O)CC(O)(c2ccccc2)c2ccccc2)CC1 (stereo not given) [[4-(3-Hydroxy-3,3-diphenyl-propionyl)-piperazin-1-yl]-(2-methyl-pyridin-3-yl)-acetonitrile] here?
The IC50 was 17 nM.

With C=CCNC(CC(=O)N1CCN(C(C#N)c2cccnc2C)CC1)c1ccccc1 (stereo not given) [[4-(3-Allylamino-3-phenyl-propionyl)-piperazin-1-yl]-(2-methyl-pyridin-3-yl)-acetonitrile] as the compound, how does the IC50 read?
The IC50 was 18 nM.

For CNC(CC(=O)N1CCN(C(C#N)c2cccnc2C)CC1)c1ccccc1 (stereo not given) [[4-(3-Methylamino-3-phenyl-propionyl)-piperazin-1-yl]-(2-methyl-pyridin-3-yl)-acetonitrile], which IC50 is on record?
The IC50 was 11 nM.

For Cc1ncccc1C(C#N)N1CCN(C(=O)CC(c2ccccc2)N(C)Cc2ccccc2)CC1 (stereo not given) [{4-[3-(Benzyl-methyl-amino)-3-phenyl-propionyl]-piperazin-1-yl}-(2-methyl-pyridin-3-yl)-acetonitrile], which IC50 is on record?
Its IC50 is 20 nM.

Which IC50 does the source give for COC(=O)NC(CC(=O)N1CCN(C(C#N)c2cccnc2C)CC1)c1ccc(C(F)(F)F)cc1 (stereo not given) [[3-{4-[Cyano-(2-methyl-pyridin-3-yl)-methyl]-piperazin-1-yl}-3-oxo-1-(4-trifluoromethyl-phenyl)-propyl]-carbamic acid methyl ester] here?
Its IC50 is 12 nM.

With Cc1ncccc1C(C#N)N1CCN(C(=O)CCNC(c2ccccc2)c2ccccc2)CC1 (stereo not given) [{4-[3-(Benzhydryl-amino)-propionyl]-piperazin-1-yl}-(2-methyl-pyridin-3-yl)-acetonitrile] as the compound, how does the IC50 read?
Its IC50 is 120 nM.
